In patent publication US20260151451A1, “CYCLIC PEPTIDE DERIVATIVE COMPOSITION FOR TREATING OR PREVENTING CENTRAL NERVOUS SYSTEM INJURY/DISEASE” (DKS Co. Ltd., priority 2022, published 2026):
“And” between values parts separate entries of the source, which are not always exact repeats. Equal entries are not always repeated. “Also recorded” adds a separate entry of the source.

Key:
[1] = system: transient focal cerebral ischemia model rat; test: Cerebral infarct volume in transient focal cerebral ischemia (MCA occlusion/recanalization) model rat; format: in vivo; conditions: for Cerebral infarct volume compared with the vehicle group: Dunnett's multiple comparison test; for Cerebral infarct volume: group mean ± S.E., n=10, brain extracted 24 hours after MCA occlusion
Description: (§1) The rat was fixed in a supine position under 2% isoflurane inhalation anesthesia (Lot No.: 248KKY, Viatris Pharmaceutical Co., Ltd., laughing gas:oxygen=7:3). A thermometer probe connected to a digital thermometer (TX1002, Yokogawa Meters & Instruments Corporation) was inserted into the rectum to perform thermoregulation during surgery, and changes in rectal temperature before and after surgery were monitored. As a result, since a decrease in rectal temperature was not observed in any rat, heating was not performed. The right common carotid artery, external carotid artery, and internal carotid artery were exposed, and the common carotid artery and external carotid artery were ligated with sutures. A nylon yarn (plug) No. 4 previously coated with silicon (Kulzer Japan Co., Ltd.) and cut to a length of 19 mm was inserted from the bifurcation of the external carotid artery and the internal carotid artery to occlude the right MCA. After MCA occlusion, the neck skin was sutured and released from anesthesia. Flexion of the contralateral forelimb on the occluded side was confirmed 30 minutes after MCA occlusion. Under 2% isoflurane inhalation anesthesia, the right common carotid artery, the right external carotid artery, and the right internal carotid artery were exposed again, the plug was removed 2 hours after MCA occlusion, and the blood flow of the right MCA was resumed. After the blood flow of the right MCA was resumed, ligation of the right internal carotid artery and suturing of the neck skin were performed to awaken the animal from anesthesia. Note that benzylpenicillin potassium (Lot No.: 00904, Meiji Seika Pharma Co., Ltd.) was administered intramuscularly at a dosage of 20,000 units/kg before the MCA occlusion surgery.
24 hours after MCA occlusion, the animal was decapitated under 2% isoflurane inhalation anesthesia (Lot No.: 248KKY, Viatris Pharmaceutical Co., Ltd., laughing gas:oxygen=7:3), and the whole brain was extracted to prepare a brain section having a thickness of 2 mm. Referring to Paxinos and Watson brain atlas [Paxinos G. and Watson C. The rat brain in stereotaxic coordinates, second edition. San Diego, New York, Boston, London, Sydney, Tokyo, Toronto: Academic Press Inc.; 1986.], the brain sections were set at positions where coronal planes of 4 mm anterior to Bregma, 2 mm anterior to Bregma, above Bregma, 2 mm posterior to Bregma, 4 mm posterior to Bregma, and 6 mm posterior to Bregma were obtained. The brain sections were immersed in a 1% (W/V) 2,3,5-triphenyltetrazolium chloride (Lot No.: M7B5587, Nacalai Tesque Inc.) solution at room temperature, stained, and photographed. From the obtained photograph, brain sections (infarction site and non-infarction site) were traced on an OHP sheet. The traced image was captured by a scanner (Seiko Epson Corporation), image analysis was performed using WinROOF2015 (MITANI CORPORATION), a cerebral infarct area was obtained as a measured value, and a cerebral infarct volume between 4 mm anterior to Bregma and 6 mm posterior to Bregma was calculated from the obtained value.
[formula] • V: Cerebral infarct volume • a: Cerebral infarct area on section of 4 mm anterior to Bregma • b: Cerebral infarct area on section of 2 mm anterior to Bregma • c: Cerebral infarct area on section of Bregma • d: Cerebral infarct area on section of 2 mm posterior to Bregma • e: Cerebral infarct area on section of 4 mm posterior to Bregma • f: Cerebral infarct area on section of 6 mm posterior to Bregma
• Calculation of cerebral infarct volume (mm^3)
The employed data were expressed as a mean±standard error.
The following combinations were performed.

[2] = system: transient focal cerebral ischemia model rat; test: Cerebral infarct volume in transient focal cerebral ischemia model rat (Example 33; test substance given immediately after MCA recanalization); format: in vivo; conditions: for Cerebral infarct volume (mm^3): tail vein, brain extracted 24 hours after MCA occlusion, mean ± S.E. of 10 rats; for Individual data of the cerebral infarct volume (mm^3): individual animals
Description: The activity of the compound of the present disclosure was evaluated according to the following procedure.
Compound 9 (aqueous solution (50 mg/mL) prepared by dissolving a white powder in a saturated NaHCO3 solution)
Edaravone (trade name: Radicut (registered trademark) Mitsubishi Tanabe Pharma Corporation) Vehicle
Japanese Pharmacopoeia physiological saline (hereinafter, physiological saline) (Otsuka Pharmaceutical Factory, Inc.)
Rat (strain: Crl: CD (SD)) (THE JACKSON LABORATORY JAPAN, INC.)
• Intravenous administration
Using a syringe (1 mL, Terumo Corporation) equipped with an injection needle (25G×5/8, Terumo Corporation), tail vein administration was performed immediately after MCA recanalization.
Using a syringe (1 mL, Terumo Corporation) equipped with an injection needle (25G×5/8, Terumo Corporation), tail vein administration was performed immediately after MCA recanalization and 30 minutes after MCA recanalization (actual result: ±0 minutes from the specified time, allowable range: ±3 minutes from the specified time).
• 0.2 mg/kg and 2 mg/kg
• (1) The received test substance was thawed and then divided into 4 brown glass bottles by 0.1 mL. • (2) The test substances divided into small portions were stored frozen (measured value: −24.4 to −22.6° C., allowable range: −35 to −10° C.) until use in preparation. • (3) One test substance divided into small portions for each day of administration was thawed, and 4.9 mL of physiological saline was added to prepare a 1 mg/mL administration solution . . . I • (4) From I, 0.5 mL was dispensed into a brown glass bottle, and 4.5 mL of physiological saline was added to prepare a 0.1 mg/mL administration solution. • (5) It was prepared before use. • (6) The remainder after administration was discarded.
as §1, with “234KAP, Mylan Inc.,” for “248KKY, Viatris Pharmaceutical Co., Ltd.,”
24 hours after MCA occlusion, the animal was decapitated under 2% isoflurane inhalation anesthesia (Lot No.: 234KAP, Mylan Inc., laughing gas:oxygen=7:3), and the whole brain was extracted to prepare a brain section having a thickness of 2 mm. Referring to Paxinos and Watson brain atlas [axinos G. and Watson C. The rat brain in stereotaxic coordinates, second edition. […]

| Structure (SMILES) | Cerebral infarct volume compared with the vehicle group ([1]; administered 30 minutes after MCA recanalization) | Cerebral infarct volume compared with the vehicle group ([1]; administered 1 hour after MCA recanalization, p value=0.0525) | Cerebral infarct volume ([1]; 2 mg/kg administered 30 minutes after MCA reperfusion) | Cerebral infarct volume ([1]; 2 mg/kg administered 1 hour after MCA reperfusion) | Cerebral infarct volume, individual data ([1]; individual animals Nos. 202-214, administered 30 minutes after MCA reperfusion) | Cerebral infarct volume, individual data ([1]; individual animals Nos. 301-314, second Compound 9 group (head prints 30 minutes after MCA reperfusion; mean matches the 1 hour group)) | Cerebral infarct volume (mm^3) ([2]; Compound 9 0.2 mg/kg, immediately after MCA recanalization, 2 hours MCA occlusion, 0.2 mg/kg) | Statistical difference of cerebral infarct volume from the vehicle group (Dunnett's multiple comparison test) ([2]; Compound 9 2 mg/kg i.v.) | Cerebral infarct volume (mm^3) ([2]; Compound 9 2 mg/kg, immediately after MCA recanalization, 2 hours MCA occlusion, 2 mg/kg) | Cerebral infarct reduction action: cerebral infarct volume compared with the vehicle group ([2]; Compound 9 groups, 0.2 mg/kg and 2 mg/kg i.v.) | Individual data of the cerebral infarct volume (mm^3) ([2]; Compound 9 0.2 mg/kg group (n = 10), 0.2 mg/kg) | Individual data of the cerebral infarct volume (mm^3) ([2]; Compound 9 2 mg/kg group (n = 10), 2 mg/kg) | Cerebral infarct volume ([1]; Edaravone group 3 mg/kg) | Cerebral infarct volume, individual data ([1]; individual animals Nos. 401-414, Edaravone group) | Cerebral infarct volume compared with the vehicle group (Student's t-test) ([2]; Edaravone 3 mg/kg per dose i.v., twice) | Cerebral infarct volume (mm^3) ([2]; Edaravone 3 mg/kg per dose, immediately after and 30 minutes after MCA recanalization) | Individual data of the cerebral infarct volume (mm^3) ([2]; Edaravone 3 mg/kg per dose group (n = 10)) |
| --- | --- | --- | --- | --- | --- | --- | --- | --- | --- | --- | --- | --- | --- | --- | --- | --- | --- |
| CC[C@@]1(C)Oc2cc(ccc2O)C[C@H](NC)C(=O)N[C@@H](C(C)C)C(=O)N[C@@H]1C(=O)N[C@@H](CC(=O)O)C(=O)O [Compound 9] | ameliorating effect on cerebral infarct | improvement tendency | 250.0±20.5 mm^3 and 250.0 ± 20.5 * mm^3 and 250.0 mm^3 | 260.4±13.9 mm^3 and 260.4 mm^3 | 254.3 mm^3 and 319.8 mm^3 and 274.6 mm^3 and 210.2 mm^3 and 133.9 mm^3 and 192.3 mm^3 and 272.2 mm^3 and 296.0 mm^3 and 201.4 mm^3 and 345.5 mm^3 | 253.1 mm^3 and 243.0 mm^3 and 355.2 mm^3 and 220.7 mm^3 and 261.4 mm^3 and 250.7 mm^3 and 192.0 mm^3 and 256.3 mm^3 and 272.3 mm^3 and 299.0 mm^3 | 336.9±14.2 mm^3 and 336.9 mm^3 | a statistically significant difference was observed in the 2 mg/kg group | 301.8±12.8 mm^3 and 301.8 ± 12.8 ^** mm^3 and 301.8 mm^3 | all showed low values; also recorded: has an ameliorating effect on cerebral infarct after cerebrovascular disorder | 341.9 mm^3 and 350.2 mm^3 and 331.8 mm^3 and 366.5 mm^3 and 372.7 mm^3 and 219.1 mm^3 and 318.3 mm^3 and 339.3 mm^3 and 369.8 mm^3 and 359.8 mm^3 | 264.4 mm^3 and 343.3 mm^3 and 342.4 mm^3 and 374.1 mm^3 and 279.7 mm^3 and 273.1 mm^3 and 293.4 mm^3 and 251.2 mm^3 and 316.6 mm^3 and 279.6 mm^3 |  |  |  |  |  |
| CC1=NN(c2ccccc2)C(=O)C1 [Edaravone, reference compound] |  |  |  |  |  |  |  |  |  |  |  |  | 232.2±14.6 mm^3 and 232.2 ± 14.6 ^## mm^3 and 232.2 mm^3 | 140.7 mm^3 and 218.3 mm^3 and 221.0 mm^3 and 170.0 mm^3 and 231.1 mm^3 and 268.2 mm^3 and 268.9 mm^3 and 278.6 mm^3 and 268.4 mm^3 and 257.0 mm^3 | showed low values, and a statistically significant difference was observed; also recorded: showed a lower value than that of the vehicle group, and a statistically significant difference was observed | 292.8±14.2 mm^3 and 292.8 ± 14.2 ^## mm^3 and 292.8 mm^3 | 248.4 mm^3 and 324.8 mm^3 and 282.1 mm^3 and 375.0 mm^3 and 308.0 mm^3 and 319.8 mm^3 and 217.2 mm^3 and 299.1 mm^3 and 253.8 mm^3 |
